Experimental data: paper PMC7571068, “Antiproliferative and Pro-Apoptotic Effect of Uvaol in Human Hepatocarcinoma HepG2 Cells by Affecting G0/G1 Cell Cycle Arrest, ROS Production and AKT/PI3K Signaling Pathway” (Molecules, 2020)

Experiments:
HepG2 cells [1] = assay: Muse Annexin V & Dead Cell apoptosis assay; assay type: cell-based, human; conditions: HepG2, uvaol IC50, 24 h
Method: (§1) A total of 1.5 × 10^5 cells were seeded per well in 24-well plates for each cell line (quadruplicates for three different populations of each cell line). […] Negative control populations were incubated only with the appropriate culture medium. The samples were analyzed in the Muse^TM Cell Analyzer (Merck-Millipore®, Burlington, MA, USA). Phosphatidylserine (PS) is a phospholipid that is usually found in the inner half of the cytoplasmic membrane, but is outsourced when loss of integrity occurs in the apoptosis process. The method is based on the recognition and binding to the PS exposed by annexin V protein, labeled with a fluorescent substance to detect the interaction and quantify it. We used the Muse^TM Annexin V & Dead Cell kit purchased from Millipore (Billerica, MA, USA), which provides the percentage of viable cells, apoptotic and affected by necrosis.

WRL68 cells [2] = assay: Muse Annexin V & Dead Cell apoptosis assay; assay type: cell-based, human; conditions: WRL68, uvaol IC50, 24 h
Method: as §1

[3] = tested on: AKT/PI3K and ERK1/2/MAPK signaling pathways in HepG2 cells; assay: Muse PI3K/MAPK Dual Pathway activation assay; assay type: cell-based, human; conditions: HepG2, IC50, 24 h
Method: (§2) The Muse® PI3K/MAPK Dual Pathway activation kit purchased from Millipore (Billerica, MA, USA) was employed to examine both the PI3K and MAPK signaling pathways simultaneously using the Muse Cell Analyzer (Merck-Millipore®, Burlington, MA, USA). The protocol followed was performed as the manufacturer instructions. The samples (quadruplicates for three different populations of each cell line) were analyzed in the Muse^TM Cell Analyzer.

[4] = tested on: AKT/PI3K and ERK1/2/MAPK signaling pathways in WRL68 cells; assay: Muse PI3K/MAPK Dual Pathway activation assay; assay type: cell-based, human; conditions: WRL68, IC50, 24 h
Method: as §2

[5] = tested on: p53, c-Myc, Bcl-2, SOD, HSP-60 and Bax proteins in HepG2 cells; assay: Western blot of protein expression; assay type: cell-based, human; conditions: HepG2, IC50, 24 h, normalized to actin
Method: (§3) Triplicates of three different populations of each cell line, WRL68 and HepG2, were seeded in 6-well plates with a density of 2.5 × 10^5 cells per well. […] For protein extraction, each sample was resuspended in 20 μL of RIPA buffer (150 mM NaCl, 1% Igepal, 0.5% deoxycholic acid, 0.1% SDS, 50 mM Tris HCl pH 7.5, 0.2 M PMSF, […] and Thermo Scientific® PierceTM inhibitor cocktail, Waltham, MA, USA), and held on ice for 15 min. They were centrifuged at 15,000× g for 10 min at 4 °C, the supernatant was collected and stored at −80 °C for further analysis. The quantification of the protein concentration was carried out through the Bradford method. The methodology used for Western blot analysis is described by Mokhtari et al.. Brie fly, the initial separation of the extracts was performed by a 12% polyacrylamide gel electrophoresis under denaturing conditions (SDS-PAGE). A standardized load of 30 μg of protein per well was used after denaturing the samples at 95 °C for 5 min and adding the loading buffer (0.25 mM Tris-HCl pH 6.8, 10% SDS, 1 M DTT and glycerol). The proteins were transferred, by the semi-dry transfer method, (60 mA per gel, 1 h) using the TransBlot Turbo system (BioRad®, Berkeley, CA, USA), to a PVDF membrane. The membranes were blocked with blocking buffer (TBS, 0.1% Tween-20 and 3% skimmed milk) for 1 h at room temperature, incubating with the specific primary antibodies against the proteins studied at 4 °C overnight. The primary antibodies (from Santa Cruz Biotechnology®, Dallas, TX, USA) were diluted in blocking buffer. The membranes were washed with TBS-T (TBS, 0.1% Tween-20) for 5 min three times under stirring, and incubated with the corresponding secondary antibody (from Sigma®, St. Louis, MO, USA) (Table 1) for 1 h at room temperature, repeating the previous washing process later. These secondary antibodies have the enzyme horseradish peroxidase (HRP) coupled, which allows chemiluminescence to be detected in the presence of the protein band due to its ability to oxidize the luminol solution (ECL-plus Western-blot detection system, GE Healthcare, Chicago, IL, USA). The reaction produced was captured inside a ChemiDoc Imaging System (Bio-Rad®, Berkely, CA, USA). The program used to analyze the images obtained was Image Lab Software (Bio-Rad®, for PC 6.1 version). The expression of each protein was normalized referring to actin levels and were represented based on the results obtained for the control situation (WRL68 line without treatment) as percentage of expression (%). The expression obtained in each protein was analyzed through the mentioned program in triplicate.

[6] = tested on: p53, c-Myc, Bcl-2, SOD, HSP-60 and Bax proteins in WRL68 cells; assay: Western blot of protein expression; assay type: cell-based, human; conditions: WRL68, IC50, 24 h, normalized to actin
Method: as §3

HepG2 cells [7] = assay: Wound healing (scratch) assay; assay type: cell-based, human; conditions: HepG2, IC50 concentration, 0-42 h
Method: (§4) The wound healing or scratch assay was used to assess the migration capacity of the WRL68 and HepG2 cell lines. With this objective, 3 × 10^5 cells were seeded per well in a 6-well plate in triplicate for each cell line. When the populations reached a confluence of 80–90%, a sterile pipette tip was used to disrupt in a straight line (make a wound) the layer of cells attached to the culture surface. Subsequently, it was washed with PBS to prevent the cells that had been lifted from being able to rejoin. […] Quantification of wound healing was performed by using the MRI-Wound Healing Tool for ImageJ software (ImageJ 1.53a version).

WRL68 cells [8] = assay: Wound healing (scratch) assay; assay type: cell-based, human; conditions: WRL68, IC50 concentration, 0-42 h
Method: as §4

HepG2 cells [9] = assay: Morphological changes, optical microscopy; assay type: cell-based, human; conditions: HepG2, IC50, 24 h
Method: (§5) Optical microscopy (Olympus® model CX22LED, Tokyo, Japan) images of the cultures were obtained in the mentioned conditions at 10 and 40 magnifications for the cell line each after 24 h of the treatment’s application.

WRL68 cells [10] = assay: Morphological changes, optical microscopy; assay type: cell-based, human; conditions: WRL68, IC50, 24 h
Method: as §5

MDA-MB-231 line = tested on: MDA-MB-231 line; set-up: method as in PMID 25412049; conditions: cited from earlier work

C[C@H]1[C@H](C)CC[C@]2(CO)CC[C@]3(C)C(=CC[C@@H]4[C@@]5(C)CC[C@H](O)C(C)(C)[C@@H]5CC[C@]43C)[C@H]12 [uvaol, urs-12-ene-3,28-diol]
change in percentage of viable cells vs control (HepG2 cells [1]): significant reduction | change in proportion of apoptotic cells vs control (HepG2 cells [1]): increasing the proportion of apoptotic cells | change in number of apoptotic and necrotic cells vs control (WRL68 cells [2]): equally significant increase | change in number of viable cells vs control (WRL68 cells [2]): significant decrease | change in percentage of cells that only activated ERK1/2/MAPK [3]: not altered | decrease in cells that only activated AKT/PI3K [3]: 25% | increase in cells with activated dual pathway (MAPK and PI3K) [3]: 9% | net balance: increase of ERK1/2/MAPK signaling pathway [3]: 9% | net balance: inhibition of AKT/PI3K signaling pathway [3]: 16% | change in percentage of cells in which only ERK1/2/MAPK was activated [4]: not altered | decrease in cells that only activated the AKT/PI3K pathway [4]: 22% | increase in cells that activated the dual pathway (MAPK and PI3K) [4]: 25% | net balance: activation of the ERK1/2/MAPK signaling pathway [4]: 25% | net balance: modification of the PI3K pathway [4]: no modification | Bax expression vs control [5]: increased | Bcl-2 expression vs control [5]: decreased | HSP-60 expression vs control [5]: increased in both lines | SOD expression vs control [5]: remained unchanged | c-Myc expression vs control [5]: maintained | p53 expression vs control [5]: remained unchanged | Bax expression vs control [6]: did not produce changes | Bcl-2 expression vs control [6]: did not produce changes | HSP-60 expression vs control [6]: increased in both lines | SOD expression vs control [6]: increased | c-Myc expression vs control [6]: increase | p53 expression vs control [6]: increased | wound closure (cell migration) (HepG2 cells [7]): the wound remains until the end of the trial | wound closure (cell migration) (WRL68 cells [8]): wound healing was maintained during more hours than the control group | cell morphology change (HepG2 cells [9]): slightly more rounded, with very sharp projections and a loss of adhesion to the support | cell morphology change (WRL68 cells [10]): become rounded and have cytoplasmic projections | changes in cell cycle progression (MDA-MB-231 line): did not produce changes in the progression of the cycle
